Each block holds one molecule with its values, some of them ahead of it.
Legend:
[1] = biological target: T1, GIRK1/GIRK2 channels (AtT20 cells) (Mus musculus, UniProt P48542+P63250); assay: GIRK channel fluorescent plate reader assay; type: cell-based
T1 sequence (P63250 1-501): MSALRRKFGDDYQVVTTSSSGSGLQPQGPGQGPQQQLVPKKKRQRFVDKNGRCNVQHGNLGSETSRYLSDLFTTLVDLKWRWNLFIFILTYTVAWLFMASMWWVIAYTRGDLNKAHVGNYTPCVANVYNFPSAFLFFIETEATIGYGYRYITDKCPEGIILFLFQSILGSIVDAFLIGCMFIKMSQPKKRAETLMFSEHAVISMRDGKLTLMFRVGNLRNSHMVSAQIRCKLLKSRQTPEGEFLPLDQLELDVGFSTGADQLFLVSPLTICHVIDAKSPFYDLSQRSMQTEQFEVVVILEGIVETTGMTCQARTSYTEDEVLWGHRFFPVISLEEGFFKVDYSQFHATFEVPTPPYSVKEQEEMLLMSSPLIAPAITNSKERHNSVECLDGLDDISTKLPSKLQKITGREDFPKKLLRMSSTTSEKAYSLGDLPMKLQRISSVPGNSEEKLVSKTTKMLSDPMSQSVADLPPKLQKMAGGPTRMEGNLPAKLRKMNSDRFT
T1 sequence (P48542 1-425): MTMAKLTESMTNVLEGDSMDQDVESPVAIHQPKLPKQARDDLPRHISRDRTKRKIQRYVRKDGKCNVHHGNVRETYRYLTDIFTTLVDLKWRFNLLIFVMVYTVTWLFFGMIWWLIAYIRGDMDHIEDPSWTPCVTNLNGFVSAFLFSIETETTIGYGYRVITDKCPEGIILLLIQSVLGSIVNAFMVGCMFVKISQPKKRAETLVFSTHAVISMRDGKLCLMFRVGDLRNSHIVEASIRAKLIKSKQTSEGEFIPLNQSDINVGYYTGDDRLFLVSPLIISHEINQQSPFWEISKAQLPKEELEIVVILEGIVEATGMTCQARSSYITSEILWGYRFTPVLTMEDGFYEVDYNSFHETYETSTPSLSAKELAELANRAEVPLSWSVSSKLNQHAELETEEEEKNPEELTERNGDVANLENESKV

atrial fibrillation = settings: ref Hashimoto et al., [2008]; Machida et al., [2011]; cited from earlier work
GIRK1/GIRK4 channels = settings: ref Hashimoto et al., [2008]; Machida et al., [2011]; cited from earlier work
[2] = biological target: T2, GIRK1/GIRK4 channel (cardiac HL-1 cells) (Mus musculus, UniProt P48545+P63250); assay: GIRK channel fluorescent plate reader assay; type: cell-based
T2 sequence (P63250 1-501): T1 sequence (P63250 1-501)
T2 sequence (P48545 1-419): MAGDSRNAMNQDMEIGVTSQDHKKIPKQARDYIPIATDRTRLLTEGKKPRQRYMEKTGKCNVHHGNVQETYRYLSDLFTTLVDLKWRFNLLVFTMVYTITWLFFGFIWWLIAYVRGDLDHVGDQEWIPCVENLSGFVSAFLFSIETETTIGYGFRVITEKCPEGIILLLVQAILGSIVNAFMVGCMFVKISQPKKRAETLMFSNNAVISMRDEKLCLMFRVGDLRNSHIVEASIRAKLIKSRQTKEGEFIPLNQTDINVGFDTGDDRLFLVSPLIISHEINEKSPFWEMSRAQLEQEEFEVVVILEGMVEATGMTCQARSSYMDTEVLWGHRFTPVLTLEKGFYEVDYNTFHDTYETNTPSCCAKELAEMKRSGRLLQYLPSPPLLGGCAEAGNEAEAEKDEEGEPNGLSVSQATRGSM

change in the fluorescent signal ([1]; 10 μM, AtT20 cells): no change
SMILES: Nc1ncnc2c1ncn2[C@@H]1O[C@H](CO)[C@@H](O)[C@H]1O [adenosine]

GIRK channel blocking effect ([1]; tested up to 10 μM, AtT20 and HL-1 cells screened, cell line not specified): no blocking effect
SMILES: N=C(N)NC(=O)c1nc(Cl)c(N)nc1N [amiloride]

SMILES: [Ba+2].[Cl-].[Cl-] [BaCl2]
reduction of the somatostatin-mediated fluorescent change ([1]; 0.5 mM, AtT20 cells, n = 6 wells): 67 ± 4% | reduction of the somatostatin-mediated fluorescent change ([1]; 1 mM, AtT20 cells, n = 6 wells): 92 ± 2% | inhibition of the somatostatin-mediated fluorescent change ([1]; 2 mM, 5 min pretreatment, AtT20 cells): complete inhibition

SMILES: Cc1cc(CO)nc2cc3c(cc12)OC(C)(C)[C@H](O)[C@H]3NCCc1ccccc1 [NTC-801]
effect in canine model of atrial fibrillation (atrial fibrillation): converted AF to sinus rhythm | concentration range of GIRK1/GIRK4 channel block (GIRK1/GIRK4 channels): nanomolar concentrations

SMILES: COc1ccc2[nH]c([S+]([O-])Cc3ncc(C)c(OC)c3C)nc2c1 (stereo not shown) [omeprazole]
change in GPCR-sensitive fluorescence during treatment ([1]; cell line not specified (AtT20 / HL-1), Figure 5): no change in fluorescence

fluorescent change (F/FO) ([1]; 10 mM KCl, depolarization, AtT20 cells): 0.058 | fluorescent change (F/FO) ([1]; 20 mM KCl, depolarization, AtT20 cells): 0.13 | fluorescent change (F/FO) ([1]; 30 mM KCl, depolarization, AtT20 cells): 0.15
SMILES: [Cl-].[K+] [KCl]

IC50 [1]: 200 nM | IC50 [2]: 300 nM
SMILES: Cc1nc2c(OCc3ccccc3)cccn2c1CC#N [SCH-28080, 2-methyl-8-(phenylmethoxy)imidazo[1,2-A]pyridine-3-acetonitrile]

SMILES: C[C@H](N)C(=O)NCC(=O)N[C@H]1CSSC[C@@H](C(=O)O)NC(=O)[C@H](CO)NC(=O)[C@H]([C@@H](C)O)NC(=O)[C@H](Cc2ccccc2)NC(=O)[C@H]([C@@H](C)O)NC(=O)[C@H](CCCCN)NC(=O)[C@H](Cc2c[nH]c3ccccc23)NC(=O)[C@H](Cc2ccccc2)NC(=O)[C@H](Cc2ccccc2)NC(=O)[C@H](CC(N)=O)NC(=O)[C@H](CCCCN)NC1=O [somatostatin]
fluorescent change (F/FO) ([1]; 200 nM, AtT20 cells, n = 6 wells): −0.088

EC50 [1]: 1000 nM | peak fluorescent change ([1]; AtT20 cells, n = 6 wells): −0.037
SMILES: C[N+](C)(C)CCOC(N)=O [carbachol]
